# Patent US20250171462A1 (NICO Therapeutics, Inc., priority 2022, published 2025)
# Read-outs that look alike come from different tables or passages of the source.
# Molecular target: T1, full-length SARM1 (FL-SARM1) (Homo sapiens, UniProt Q6SZW1)
# T1 sequence (Q6SZW1 28-724): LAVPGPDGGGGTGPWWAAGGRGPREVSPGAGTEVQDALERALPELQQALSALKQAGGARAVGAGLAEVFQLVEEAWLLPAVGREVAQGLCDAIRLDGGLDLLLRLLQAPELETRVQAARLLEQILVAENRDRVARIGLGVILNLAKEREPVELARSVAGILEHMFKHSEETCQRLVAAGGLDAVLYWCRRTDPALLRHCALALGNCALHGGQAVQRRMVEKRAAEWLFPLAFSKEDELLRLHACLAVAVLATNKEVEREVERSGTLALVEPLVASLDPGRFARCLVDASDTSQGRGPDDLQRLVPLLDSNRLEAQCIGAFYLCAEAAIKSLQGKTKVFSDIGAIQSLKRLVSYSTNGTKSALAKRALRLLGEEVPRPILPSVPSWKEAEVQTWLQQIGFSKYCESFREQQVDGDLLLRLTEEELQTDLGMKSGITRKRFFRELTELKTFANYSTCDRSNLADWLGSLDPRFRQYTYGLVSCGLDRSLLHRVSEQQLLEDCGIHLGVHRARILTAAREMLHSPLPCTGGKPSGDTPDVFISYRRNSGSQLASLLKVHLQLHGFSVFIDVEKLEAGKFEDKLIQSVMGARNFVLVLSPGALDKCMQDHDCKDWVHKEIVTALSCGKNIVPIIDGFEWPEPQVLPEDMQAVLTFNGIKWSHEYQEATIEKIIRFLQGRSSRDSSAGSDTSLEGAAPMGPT
# Test: FL-SARM1 cellular lysate assay (NAD/NADH-Glo detection of remaining NAD+, NMN-activated)
# [1] = Activity (μM) (IC50), 11 point curve
# [2] = read-out: Activity (IC50 class), 11 point curve
# [3] = Activity (IC50 class), 11 point curve
# Method: Preparation of full-length SARM1 (FL-SARM1) lysate: HEK293T cells (ATCC: CRL-3216) were grown on 150 mm TC-treated dishes to 80-90% confluency in complete DMEM (DMEM (Thermo Fisher: 11965175) supplemented with 10% HI—FBS (VWR: 10802-772), 1× Pen/Strep (Thermo Fisher: 15140122), 1×NEAA (Thermo Fisher: 1140050), 1× glutamax (Thermo Fisher: 35050061), and 1 mM sodium pyruvate (Thermo Fisher: 11360070)) at 37° C. and 5% CO2. One hour prior to transfection, the media was replaced with fresh, 37° C. complete DMEM (20 mL per one 150 mm dish) supplemented with additional 10 mM glucose (Alfa Aesar AAJ60067EQE). Per one 150 mm dish, 30 μg FL-SARM1 (SEQ. ID. 1; cloned in-house) plasmid was dissolved in 1 mL DMEM at ambient temperature and were mixed by inverting the tube 8-10 times. 90 μL of GenJet™ in vitro DNA transfection reagent (Ver2) was dissolved in 1 mL DMEM at ambient temperature and were mixed by inverting the tube 8-10 times. The plasmid and transfection agent solutions were combined, mixed by 8-10 inversions and incubated for 10 minutes at ambient temperature. 2 mL of this transfection mixture was added to each dish containing HEK293T cells as prepared above followed by a gentle mixing of 4-5 horizontal rotations. The dishes were incubated at 37° C. and 5% CO2 for 24 h. The dishes were removed from the incubator, the medium was aspirated and the cells were scraped off using cell scrapers in ice-cold 1×PBS (5 mL/dish, Thermo Fisher Scientific 10010023). The collected cells were centrifuged at 300 g for 5 minutes at 4° C. The supernatant was aspirated and the pellet was frozen at −80° C. until needed. The cell pellet from 30 dishes was dissolved in 30 mL 1×PBS supplemented with 4 tablets of Complete, Mini EDTA-free protease inhibitor cocktail at 4° C. This mixture was sonicated on ice for 10 minutes at 50% amplitude with a 1 second on/1 second off interval using a Model 120 sonicator (Thermo Fisher Scientific, FB120110). The lysate was centrifuged at 16000 g for 10 minutes at 4° C.
# To a white 384-well Proxiplate (PerkinElmer, PE-6008280) was added 50 nL/well of a DMSO solution containing test compounds followed by 7.5 μL/well of a 0.067 mg/mL solution of SARMi cellular lysate in reaction buffer (DPBS containing CHAPSO (0.1%) and fatty acid free BSA (0.032%)). The plate was centrifuged for 1 minute at 1000 RPM and then placed in an incubator at 23° C. for 15 minutes. To the wells were added 2.5 μL/well of a solution containing 40 M NAD^+ and 4 mM nicotinamide mononucleotide (NMN) in reaction buffer. The plate was centrifuged for 1 min at 1000 RPM, the plate was sealed and placed in an incubator at 23° C. for 3.5 hours before adding 3.5 μL/well of NAD/NADH-Glo™ solution (preparation as described by Promega using the extended detection protocol). The plate was centrifuged for 1 minute at 1000 RPM and then incubated at 23° C. for 20 minutes. 1 μL/well of a 3.625 mM solution of menadione in DMSO was added and the plate was centrifuged for 1 minute at 1000 RPM. Relative light units (RLU) were recorded using an Envision plate reader at a height of 6.5 mm.
# IC50 values were calculated from an 11 point curve using ½ log dilutions using a four-parameter logistic regression curve fit.
Compound,IC50 [1],IC50 [2],IC50 [3]
"COC(=O)C12CCCC(C1)N2C(=O)Nc1ccc(C)c(-c2ccccn2)c1 (stereo not drawn) [Example 9, Methyl 6-[[4-methyl-3-(2-pyridyl)phenyl]carbamoyl]-6-azabicyclo[3.1.1]heptane-1-carboxylate]",0.1 µM,0.0001 to 1 µM,
"Cc1ccc(NC(=O)N2[C@@H]3C[C@H](C)C[C@H]2C3)cc1-c1ccccn1 [Example 10, trans-3-Methyl-N-(4-methyl-3-(pyridin-2-yl)phenyl)-6-azabicyclo[3.1.1]heptane-6-carboxamide]",0.01 µM,0.0001 to 1 µM,
"Cc1ccc(NC(=O)N2[C@@H]3C[C@@H](C)C[C@H]2C3)cc1-c1ccccn1 [Example 11, cis-3-Methyl-N-(4-methyl-3-(pyridin-2-yl)phenyl)-6-azabicyclo[3.1.1]heptane-6-carboxamide]",0.01 µM,0.0001 to 1 µM,
"Cc1ccc(NC(=O)N2C[C@@H]3C[C@H]2CN3c2ccccc2)cc1-c1ccccn1 [Example 13, (1S,4S)-N-(4-methyl-3-(pyridin-2-yl)phenyl)-5-phenyl-2,5-diazabicyclo[2.2.1]heptane-2-carboxamide]",0.7 µM,0.0001 to 1 µM,
"Cc1ccc(NC(=O)N2C3CCCC2CC3)cc1-c1ccc(F)cn1 [Example 14, N-(3-(5-fluoropyridin-2-yl)-4-methylphenyl)-8-azabicyclo[3.2.1]octane-8-carboxamide]",0.1 µM,0.0001 to 1 µM,
"Cc1ccc(NC(=O)N2C3CCC2c2c(F)cncc23)cc1-c1ccccn1 (stereo not drawn) [Example 15, 4-fluoro-N-(4-methyl-3-(pyridin-2-yl)phenyl)-5,6,7,8-tetrahydro-5,8-epiminoisoquinoline-9-carboxamide]",0.4 µM,0.0001 to 1 µM,
"Cc1ccc(NC(=O)N2CC3CCC2c2ccccc23)cc1-c1ccccn1 (stereo not drawn) [Example 16, N-(4-methyl-3-(pyridin-2-yl)phenyl)-1,2,3,4-tetrahydro-1,4-(epiminomethano)naphthalene-10-carboxamide]",1.1 µM,,1 to 10 µM
"Cc1ccc(NC(=O)N2C3CCCC2C3)cc1-c1ccccn1 [Example 17, N-(4-methyl-3-(pyridin-2-yl)phenyl)-6-azabicyclo[3.1.1]heptane-6-carboxamide]",0.1 µM,0.0001 to 1 µM,
"O=C(Nc1ccc(C(F)(F)F)c(-c2ccccn2)c1)N1C2CCCC1C2 [Example 18, N-(3-(pyridin-2-yl)-4-(trifluoromethyl)phenyl)-6-azabicyclo[3.1.1]heptane-6-carboxamide]",0.3 µM,0.0001 to 1 µM,
"N#CCc1ccc(NC(=O)N2C3CCCC2C3)cc1-c1ccccn1 [Example 19, N-(4-(cyanomethyl)-3-(pyridin-2-yl)phenyl)-6-azabicyclo[3.1.1]heptane-6-carboxamide]",0.2 µM,0.0001 to 1 µM,
"O=C(Nc1ccc(Cl)c(-c2ccccn2)c1)N1C2CCCC1C2 [Example 20, N-(4-chloro-3-(pyridin-2-yl)phenyl)-6-azabicyclo[3.1.1]heptane-6-carboxamide]",0.4 µM,0.0001 to 1 µM,
"Cc1ccc(NC(=O)N2CC3CC2Cc2ccccc23)cc1-c1ccccn1 (stereo not drawn) [Example 21, N-(4-methyl-3-(pyridin-2-yl)phenyl)-4,5-dihydro-1H-1,4-methanobenzo[d]azepine-3(2H)-carboxamide]",2.5 µM,,1 to 10 µM
"Cc1ccc(NC(=O)N2C3CC2C(=O)N(C)C3)cc1-c1ccccn1 (stereo not drawn) [Example 22, 3-methyl-N-(4-methyl-3-(pyridin-2-yl)phenyl)-2-oxo-3,6-diazabicyclo[3.1.1]heptane-6-carboxamide]",2 µM,,1 to 10 µM
"Cc1ccc(NC(=O)N2C3CCCCC2C3)cc1-c1ccccn1 [Example 23, N-(4-methyl-3-(pyridin-2-yl)phenyl)-7-azabicyclo[4.1.1]octane-7-carboxamide]",0.04 µM,0.0001 to 1 µM,
"Cc1ccc(NC(=O)N2CC3CC2c2ccccc2O3)cc1-c1ccccn1 (stereo not drawn) [Example 24, N-(4-methyl-3-(pyridin-2-yl)phenyl)-2,3-dihydro-2,5-methanobenzo[f][1,4]oxazepine-4(5H)-carboxamide]",1.4 µM,,1 to 10 µM
"Cc1ccc(NC(=O)N2CC(C3CC3)C2)cc1-c1ccccn1 [Example 25, 3-cyclopropyl-N-(4-methyl-3-(pyridin-2-yl)phenyl)azetidine-1-carboxamide]",6.7 µM,,1 to 10 µM
"Cc1ccc(NC(=O)N2C3CCC2c2cnccc23)cc1-c1ccccn1 (stereo not drawn) [Example 26, N-(4-methyl-3-(pyridin-2-yl)phenyl)-5,6,7,8-tetrahydro-5,8-epiminoisoquinoline-9-carboxamide]",1.3 µM,,1 to 10 µM

Compound,IC50 [1],IC50 [2],IC50 [3]
"Cc1ccc(NC(=O)N2[C@@H]3C[C@@H](F)C[C@H]2C3)cc1-c1ccccn1 [Example 27, cis-3-fluoro-N-(4-methyl-3-(pyridin-2-yl)phenyl)-6-azabicyclo[3.1.1]heptane-6-carboxamide]",0.1 µM,0.0001 to 1 µM,
"CCc1ccc(NC(=O)N2C3CCCC2C3)cc1-c1ccc(F)cn1 [Example 28, N-(4-ethyl-3-(5-fluoropyridin-2-yl)phenyl)-6-azabicyclo[3.1.1]heptane-6-carboxamide]",0.6 µM,0.0001 to 1 µM,
"Cc1ccc(NC(=O)N2C3C[C@H](OC(F)F)C[C@H]2C3)cc1-c1ccccn1 [Example 29, trans-3-(difluoromethoxy)-N-(4-methyl-3-(pyridin-2-yl)phenyl)-6-azabicyclo[3.1.1]heptane-6-carboxamide]",0.06 µM,0.0001 to 1 µM,
"CCc1ccc(NC(=O)N2C3CCCC2C3)cc1-c1ccccn1 [Example 30, N-(4-ethyl-3-(pyridin-2-yl)phenyl)-6-azabicyclo[3.1.1]heptane-6-carboxamide]",0.2 µM,0.0001 to 1 µM,
"Cc1ccc(NC(=O)N2C3CCCC2C3)cc1-c1ncccc1C1CC1 [Example 32, N-(3-(3-cyclopropylpyridin-2-yl)-4-methylphenyl)-6-azabicyclo[3.1.1]heptane-6-carboxamide]",6.1 µM,,1 to 10 µM
"Cc1ccc(NC(=O)N2C3CCCC2C3)cc1-c1ncccc1C#N [Example 33, N-(3-(3-cyanopyridin-2-yl)-4-methylphenyl)-6-azabicyclo[3.1.1]heptane-6-carboxamide]",1.2 µM,,1 to 10 µM
"O=C(Nc1ccc(C2CC2)c(-c2ccccn2)c1)N1C2CCCC1C2 [Example 34, N-(4-cyclopropyl-3-(pyridin-2-yl)phenyl)-6-azabicyclo[3.1.1]heptane-6-carboxamide]",1.1 µM,,1 to 10 µM
"O=C(Nc1ccc(F)c(-c2ccc(F)cn2)c1)N1C2CCCC1C2 [Example 35, N-(4-fluoro-3-(5-fluoropyridin-2-yl)phenyl)-6-azabicyclo[3.1.1]heptane-6-carboxamide]",3.5 µM,,1 to 10 µM
"O=C(Nc1ccc(C2CC2)c(-c2ccc(F)cn2)c1)N1C2CCCC1C2 [Example 36, N-(4-cyclopropyl-3-(5-fluoropyridin-2-yl)phenyl)-6-azabicyclo[3.1.1]heptane-6-carboxamide]",1.1 µM,,1 to 10 µM
"Cc1ccc(NC(=O)N2C[C@H]3C[C@@H]2CN3c2ccccc2)cc1-c1ccccn1 [Example 38, (1R,4R)-N-(4-methyl-3-(pyridin-2-yl)phenyl)-5-phenyl-2,5-diazabicyclo[2.2.1]heptane-2-carboxamide]",7.7 µM,,1 to 10 µM
"Cc1ccc(NC(=O)N2C3C[C@H](O)C[C@H]2C3)cc1-c1ccccn1 [Example 39, trans-3-hydroxy-N-(4-methyl-3-(pyridin-2-yl)phenyl)-6-azabicyclo[3.1.1]heptane-6-carboxamide]",3.8 µM,,1 to 10 µM
"Cc1ccc(NC(=O)N2C3CCCC2C3)cc1-c1ccc(F)cn1 [Example 40, N-(3-(5-fluoropyridin-2-yl)-4-methylphenyl)-6-azabicyclo[3.1.1]heptane-6-carboxamide]",0.08 µM,0.0001 to 1 µM,
"CO[C@@H]1C[C@@H]2C[C@H](C1)N2C(=O)Nc1ccc(C)c(-c2ccccn2)c1 [Example 41, cis-3-methoxy-N-(4-methyl-3-(pyridin-2-yl)phenyl)-6-azabicyclo[3.1.1]heptane-6-carboxamide]",0.5 µM,0.0001 to 1 µM,
"C[C@@H]1C[C@@H]2C[C@H](C1)N2C(=O)Nc1ccc(C#N)c(-c2ccccn2)c1 [Example 42, cis-N-(4-cyano-3-(pyridin-2-yl)phenyl)-3-methyl-6-azabicyclo[3.1.1]heptane-6-carboxamide]",0.05 µM,0.0001 to 1 µM,
"Cc1cc(F)c(NC(=O)N2C3CCCC2C3)cc1-c1ccccn1 [Example 43, N-(2-fluoro-4-methyl-5-(pyridin-2-yl)phenyl)-6-azabicyclo[3.1.1]heptane-6-carboxamide]",0.2 µM,0.0001 to 1 µM,
"Cc1ccc(NC(=O)N2C3CCCC2C3)cc1-c1cccc(C#N)n1 [Example 44, N-(3-(6-cyanopyridin-2-yl)-4-methylphenyl)-6-azabicyclo[3.1.1]heptane-6-carboxamide]",0.1 µM,0.0001 to 1 µM,
